The values that follow come from ChEMBL document CHEMBL3886877, “Spiro ring compound as hepatitis C virus (HCV) inhibitor and uses thereof” (2016).

Molecules are shown by their SMILES.

This experiment can be described thus: Luciferase Assay: The Huh-7 cells transfected with HCV replicons system were seeded into 96-well plates (8,000 cells in 125 μL/well) respectively; each test compound was diluted to desired concentration using 5-fold serial dilutions protocol, 10 doses in duplicate, and added to wells with POD™ 810 Plate Assembler. […] In this paper, experiments were repeated twice and set the holes without compounds as negative control.

With `COC(=O)N[C@H](C(=O)N1CCC[C@H]1c1ncc(-c2ccc(-c3ccc(-c4ccc5nc([C@@H]6CCCN6C(=O)[C@@H](NC(=O)OC)C(C)C)[nH]c(=O)c5c4)c4c3CC3(CCCC3)C4)cc2)[nH]1)C(C)C`, the EC50 amounted to 0.087 nM.
`COC(=O)N[C@H](C(=O)N1C[C@@H](C)C[C@H]1[n+]1c[nH]c(-c2ccc(-c3ccc(-c4ccc5nc([C@@H]6C[C@H](C)CN6C(=O)[C@@H](NC(=O)OC)C(C)C)[nH]c(=O)c5c4)c4c3CC3(CCCC3)C4)cc2)c1)C(C)C` had an EC50 (Huh-7) of 0.006 nM.
